Where two headings read alike, the source gives them in different places.
Legend:
Format in all cases: cell-based
[1] = tested on: Enterococcus faecalis (EFA); experiment: MIC, two-fold agar dilution (CLSI), clinical isolates
Summary of the method: (§1)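 MIC values come from two-fold agar dilution run per CLSI antimicrobial susceptibility testing procedure.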

[2] = tested on: methicillin-sensitive Staphylococcus epidermidis (MSSE); experiment: as above
Summary of the method: as §1

[3] = tested on: methicillin-resistant Staphylococcus epidermidis (MRSE); experiment: as above
Summary of the method: as §1

[4] = tested on: Escherichia coli (including ESBLs, non-ESBLs); experiment: as above
Summary of the method: as §1

[5] = tested on: Enterococcus faecium (EFM); experiment: as above
Summary of the method: as §1

[6] = tested on: Moraxella catarrhalis (BCA); experiment: as above
Summary of the method: as §1

[7] = tested on: methicillin-resistant Staphylococcus aureus (MRSA); experiment: as above
Summary of the method: as §1

[8] = tested on: methicillin-sensitive Staphylococcus aureus (MSSA); experiment: as above
Summary of the method: as §1

[9] = tested on: BEL-7402 liver cancer cell line; experiment: CCK-8 proliferation inhibition; details: concentration of 30 μM
Description: (§2) 2. The present invention adopts the CCK-8 method to determine the proliferation inhibition effect of the spiro three-membered ring, spiro five-membered ring peptide deformylase inhibitor as described in Examples 1-80 against colorectal cancer cells, lung cancer cells, gastric cancer cells, liver cancer cells, and the like. […] The compound having the best activity synthesized in Example 64 was further tested for its inhibitory activity against other tumor cells including T cell leukemia, acute myeloid leukemia, cervical cancer, breast cancer, prostate cancer and osteosarcoma, and the like (see Table 7).
(§3) (1) HCT-116 colorectal cancer cell line, A549 lung cancer cell line, MGC-803 gastric cancer cell line, BEL-7402 liver cancer cell line, Jurkat T cell leukemia cell line, HL60 acute myeloid leukemia cell line, Hela cervical cancer cell line, MCF-7 breast cancer cell line, PC3 prostate cancer cell line and SAOS-2 osteosarcoma cell line were made into single cell suspension, 180 μL of which was inoculated into 96-well culture plate, which was cultured overnight in CO2 incubator (37° C., 5% CO2, 95% air).
(§4) (2) Each of the spiro three-membered ring, spiro five membered ring peptide deformylase inhibitors was dissolved in DMSO, and was further formulated into drug solution with required different final concentration using corresponding cell culture medium. The drug solutions were added to the above cells respectively (20 μL/well), with the control group added with 1‰ DMSO, and cultured in a CO2 incubator for 72 hours.
(§5) (3) After incubation for 72 hours, the culture solution was decanted, and 100 μL of 1:10 diluted CCK-8 solution was added.
(§6) Wherein, in step (1), the concentration of the single cell suspension was 2000 cells/well.
(§7) Wherein, in step (2), HCT-116 cells were cultured in McCoy's 5A medium (containing 10% newborn bovine serum, 1% double antibody); A549 and PC3 cells were cultured in F12 medium (containing 10% newborn bovine serum, 1% double antibody); MGC-803, BEL-7402, SAOS-2, Jurkat and HL60 cells were cultured in 1640 medium (containing 10% newborn bovine serum, 1% double antibody); and MCF-7 and Hela cells were cultured in DMEM high glucose medium (containing 10% newborn bovine serum, 1% double antibody).

[10] = tested on: MGC-803 gastric cancer cell line; experiment: CCK-8 proliferation inhibition; details: Homo sapiens, MGC-803, 72 h, concentration of 30 μM
Description: as §2, §3, §4, §5, §6, §7

[11] = tested on: A549 lung cancer cell line; experiment: CCK-8 proliferation inhibition; details: Homo sapiens, A549, 72 h, concentration of 30 μM
Description: as §2, §3, §4, §5, §6, §7

[12] = tested on: HCT-116 colorectal cancer cell line; experiment: CCK-8 proliferation inhibition; details: Homo sapiens, HCT-116, 72 h, concentration of 30 μM, 72 hours, CCK-8
Summary of the method: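 Cells were plated overnight at 2000 cells/well, then compound in culture medium was added at a range of final concentrations. After 72 hours in a CO2 incubator, medium was replaced with 1:10 CCK-8 solution for the read-out.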

[13] = tested on: Streptococcus pneoumoniae (SPN); experiment: MIC, two-fold agar dilution (CLSI), clinical isolates
Summary of the method: as §1

[14] = read-out: HCT116 inhibition rate/%

CCCC[C@H](CC(=O)NO)C(=O)N1CC2(CCCC2)C[C@H]1C(=O)Nc1cnccn1 [Example 77] gave an Anti-bacterial activity (MIC) ([1]; strain EFA 15-1) of 32 µg/mL, an Anti-bacterial activity (MIC) ([1]; strain EFA 15-2) of 32 µg/mL and an Anti-bacterial activity (MIC) ([1]; strain EFA 15-3) of 32 µg/mL. For the same compound, the Anti-bacterial activity (MIC) ([1]; strain EFA 15-4) was 32 µg/mL, the Anti-bacterial activity (MIC) ([1]; strain EFA 15-5) was 32 µg/mL and the Anti-bacterial activity (MIC) ([1]; strain EFA 15-6) was 32 µg/mL. The Anti-bacterial activity (MIC) ([1]; strain EFA 15-9) was 16 µg/mL, the Anti-bacterial activity (MIC), strain MSSE 15-3 ([2]; clinical isolate MSSE 15-3) was 0.5 µg/mL and the Anti-bacterial activity (MIC), strain MSSE 15-4 ([2]; clinical isolate MSSE 15-4) was 2 µg/mL. It also gave an Anti-bacterial activity (MIC), strain MSSE 15-5 ([2]; clinical isolate MSSE 15-5) of 2 µg/mL, an Anti-bacterial activity (MIC), strain MSSE 15-6 ([2]; clinical isolate MSSE 15-6) of 0.125 µg/mL and an Anti-bacterial activity (MIC), strain MRSE 15-1 ([3]; clinical isolate MRSE 15-1) of 0.5 µg/mL. The Anti-bacterial activity (MIC), strain MRSE 15-2 ([3]; clinical isolate MRSE 15-2) was 2 µg/mL, the Anti-bacterial activity (MIC), strain MRSE 15-3 ([3]; clinical isolate MRSE 15-3) was 2 µg/mL and the Anti-bacterial activity (MIC), strain MRSE 15-7 ([3]; clinical isolate MRSE 15-7) was 2 µg/mL. The Anti-bacterial activity (MIC), strain ECO+ 15-1 ([4]; clinical isolate ECO+ 15-1) was 0.125 µg/mL, the Anti-bacterial activity (MIC), strain ECO+ 15-2 ([4]; clinical isolate ECO+ 15-2) was over 32 µg/mL and the Anti-bacterial activity (MIC), strain ECO+ 15-3 ([4]; clinical isolate ECO+ 15-3) was over 32 µg/mL. It also gave an Anti-bacterial activity (MIC), strain ECO+ 15-4 ([4]; clinical isolate ECO+ 15-4) of over 32 µg/mL, an Anti-bacterial activity (MIC), strain ECO− 15-1 ([4]; clinical isolate ECO− 15-1) of over 32 µg/mL and an Anti-bacterial activity (MIC), strain ECO− 15-2 ([4]; clinical isolate ECO− 15-2) of over 32 µg/mL. It also gave an Anti-bacterial activity (MIC), strain ECO− 15-3 ([4]; clinical isolate ECO− 15-3) of over 32 µg/mL, an Anti-bacterial activity (MIC), strain ECO− 15-4 ([4]; clinical isolate ECO− 15-4) of over 32 µg/mL and an Anti-bacterial activity (MIC) ([5]; strain EFM 15-1) of 32 µg/mL. The Anti-bacterial activity (MIC) ([5]; strain EFM 15-2) was 32 µg/mL, the Anti-bacterial activity (MIC) ([5]; strain EFM 15-3) was 32 µg/mL and the Anti-bacterial activity (MIC) ([5]; strain EFM 15-4) was 2 µg/mL. The Anti-bacterial activity (MIC) ([5]; strain EFM 15-5) was 2 µg/mL, the Anti-bacterial activity (MIC) ([5]; strain EFM 15-6) was 2 µg/mL and the Anti-bacterial activity (MIC) ([6]; strain BCA 14-1) was 1 µg/mL. The Anti-bacterial activity (MIC) ([6]; strain BCA 14-4) was 2 µg/mL, the Anti-bacterial activity (MIC) ([6]; strain BCA 14-5) was 0.125 µg/mL and the Anti-bacterial activity (MIC) ([6]; strain BCA 14-6) was 0.5 µg/mL. For the same compound, the Anti-bacterial activity (MIC) ([6]; strain BCA 14-7) was 0.5 µg/mL, the Anti-bacterial activity (MIC) ([6]; strain BCA 14-8) was 0.5 µg/mL and the Anti-bacterial activity (MIC) ([6]; strain BCA 14-10) was 0.25 µg/mL. For the same compound, the Anti-bacterial activity (MIC), strain MRSA 15-1 ([7]; clinical isolate MRSA 15-1) was 0.25 µg/mL, the Anti-bacterial activity (MIC), strain MRSA 15-2 ([7]; clinical isolate MRSA 15-2) was 0.5 µg/mL and the Anti-bacterial activity (MIC), strain MRSA 15-3 ([7]; clinical isolate MRSA 15-3) was 0.25 µg/mL. The Anti-bacterial activity (MIC), strain MRSA 15-4 ([7]; clinical isolate MRSA 15-4) was 0.5 µg/mL, the Anti-bacterial activity (MIC), strain MSSA 15-3 ([8]; clinical isolate MSSA 15-3) was 0.5 µg/mL and the Anti-bacterial activity (MIC), strain MSSA 15-4 ([8]; clinical isolate MSSA 15-4) was 0.125 µg/mL. It also gave an Anti-bacterial activity (MIC), strain MSSA 15-5 ([8]; clinical isolate MSSA 15-5) of 0.125 µg/mL, an Anti-bacterial activity (MIC), strain MSSA 15-6 ([8]; clinical isolate MSSA 15-6) of over 32 µg/mL and an inhibition at 30 µM ([9]; Homo sapiens, Bel-7402, 72 h) of over 50%. The “Inhibition of proliferation, Liver cancer BEL-7402” value ([9]; 72 hours, 30 µM) was 49%, the inhibition at 30 µM [10] was 19% and the inhibition at 30 µM [11] was 16%. For the same compound, the inhibition at 30 µM ([12]; Table 5, read-out: Inhibition of proliferation, Colorectal cancer HCT116) was at least 30% and the inhibition at 30 µM [12, 14] was 30%.

CCCC[C@H](CC(=O)NO)C(=O)N1CC2(CCCC2)C[C@H]1C(=O)Nc1cc(C)on1 [Example 80, (S)-2-((R)-2-(2-(hydroxyamino)-2-oxoethyl)hexanoyl)-N-(5-methylisoxazol-3-yl)-2-spiro[4.4]nonane-3-carboxamide] was tested, and the Anti-bacterial activity (MIC) ([1]; strain EFA 15-1) was 16 µg/mL, the Anti-bacterial activity (MIC) ([1]; strain EFA 15-2) was over 16 µg/mL and the Anti-bacterial activity (MIC) ([1]; strain EFA 15-3) was 8 µg/mL. It also gave an Anti-bacterial activity (MIC) ([1]; strain EFA 15-4) of over 16 µg/mL, an Anti-bacterial activity (MIC) ([1]; strain EFA 15-5) of over 16 µg/mL and an Anti-bacterial activity (MIC) ([1]; strain EFA 15-6) of over 16 µg/mL. The Anti-bacterial activity (MIC) ([1]; strain EFA 15-9) was over 16 µg/mL, the Anti-bacterial activity (MIC) ([2]; strain MSSE 15-3) was 1 µg/mL and the Anti-bacterial activity (MIC) ([2]; strain MSSE 15-4) was 0.25 µg/mL. For the same compound, the Anti-bacterial activity (MIC) ([2]; strain MSSE 15-5) was 0.25 µg/mL, the Anti-bacterial activity (MIC) ([2]; strain MSSE 15-6) was 0.25 µg/mL and the Anti-bacterial activity (MIC) ([3]; strain MRSE 15-1) was 0.25 µg/mL. It also gave an Anti-bacterial activity (MIC) ([3]; strain MRSE 15-2) of 0.5 µg/mL, an Anti-bacterial activity (MIC) ([3]; strain MRSE 15-3) of 0.5 µg/mL and an Anti-bacterial activity (MIC) ([3]; strain MRSE 15-7) of 2 µg/mL. The Anti-bacterial activity (MIC) ([4]; strain ECO+ 15-1) was over 16 µg/mL, the Anti-bacterial activity (MIC) ([4]; strain ECO+ 15-2) was 16 µg/mL and the Anti-bacterial activity (MIC) ([4]; strain ECO+ 15-3) was over 16 µg/mL. For the same compound, the Anti-bacterial activity (MIC) ([4]; strain ECO+ 15-4) was over 16 µg/mL, the Anti-bacterial activity (MIC) ([4]; strain ECO− 15-1) was over 16 µg/mL and the Anti-bacterial activity (MIC) ([4]; strain ECO− 15-2) was over 16 µg/mL. The Anti-bacterial activity (MIC) ([4]; strain ECO− 15-3) was over 16 µg/mL, the Anti-bacterial activity (MIC) ([4]; strain ECO− 15-4) was over 16 µg/mL and the Anti-bacterial activity (MIC) ([5]; strain EFM 15-1) was 8 µg/mL. The Anti-bacterial activity (MIC) ([5]; strain EFM 15-2) was 4 µg/mL, the Anti-bacterial activity (MIC) ([5]; strain EFM 15-3) was 8 µg/mL and the Anti-bacterial activity (MIC) ([5]; strain EFM 15-4) was 4 µg/mL. It also gave an Anti-bacterial activity (MIC) ([5]; strain EFM 15-5) of 2 µg/mL, an Anti-bacterial activity (MIC) ([5]; strain EFM 15-6) of 8 µg/mL and an Anti-bacterial activity (MIC) ([13]; strain SPN 16-2) of 8 µg/mL. For the same compound, the Anti-bacterial activity (MIC) ([13]; strain SPN 16-4) was 4 µg/mL, the Anti-bacterial activity (MIC) ([6]; strain BCA 14-1) was 8 µg/mL and the Anti-bacterial activity (MIC) ([6]; strain BCA 14-4) was 8 µg/mL. It also gave an Anti-bacterial activity (MIC) ([6]; strain BCA 14-5) of 2 µg/mL, an Anti-bacterial activity (MIC) ([6]; strain BCA 14-6) of 8 µg/mL and an Anti-bacterial activity (MIC) ([6]; strain BCA 14-7) of 4 µg/mL. The Anti-bacterial activity (MIC) ([6]; strain BCA 14-8) was 8 µg/mL, the Anti-bacterial activity (MIC) ([6]; strain BCA 14-10) was 4 µg/mL and the Anti-bacterial activity (MIC) ([7]; strain MRSA 15-1) was 1 µg/mL. For the same compound, the Anti-bacterial activity (MIC) ([7]; strain MRSA 15-2) was 2 µg/mL, the Anti-bacterial activity (MIC) ([7]; strain MRSA 15-3) was 1 µg/mL and the Anti-bacterial activity (MIC) ([7]; strain MRSA 15-4) was 2 µg/mL. For the same compound, the Anti-bacterial activity (MIC) ([8]; strain MSSA 15-3) was 2 µg/mL, the Anti-bacterial activity (MIC) ([8]; strain MSSA 15-4) was 1 µg/mL and the Anti-bacterial activity (MIC) ([8]; strain MSSA 15-5) was 0.5 µg/mL. It also gave an Anti-bacterial activity (MIC) ([8]; strain MSSA 15-6) of 1 µg/mL and an inhibition at 30 µM [12, 14] of 11%.

Source: patent publication US10738028B2, “Spiro three-membered ring, spiro five-membered ring peptide deformylase inhibitor and use thereof in antibacteria and anti-tumor” (priority 2016, dated 2020)
